Assay [1] concerns S. aureus, P. aeruginosa and E. coli. The experiment in a line: MIC and MBC of TCP-25 with EDTA, text summary for all three bacterial strains (FIG. 20B-C). The assay is classed as cell-based.
Experimental: The minimal inhibitory concentration (MIC) was conducted according to standard protocol (Wiegand et al., 2008). A 1% bacterial solution was diluted 1:1000 times in 2×BBL™ Mueller Hinton (MH) II, cation adjusted broth (Becton, Dickinson and Company, Sparks, USA). […] Next, 50 μl of the bacterial solution was added. MH broth without bacteria was used as a sterile control, whereas supplemented only with bacteria as growth control. […] MIC was assessed as the lowest concentration of treatment that prevents visual bacterial growth in the wells. The MIC plates were then used to determine the minimal bactericidal concentration (MBC) for the various treatments. This was conducted by resuspending the solution in each well with a pipette and then plating 10 μl droplets on a THA plates which were then incubated in 37° C. overnight. MBC was established at concentration at which no bacterial colonies were observed.
Assay [2] has as its system LPS / TLR4- and TLR2-induced NF-kB activation. As to conditions: cited from earlier work.
The subject of assay [3] is P. aeruginosa-induced sepsis and LPS-mediated shock. As to conditions: mouse models of endotoxic shock; cited from earlier work.

Regarding `O=C(O)CN(CCN(CC(=O)O)CC(=O)O)CC(=O)O` [EDTA, ethylenediaminetetraacetic acid], in assay [1], the “antibacterial effect of EDTA alone” value is recorded as “some bacteriostatic effect”.
As for “HVFRLKKWIQKVIDQFGE (TCP-25 fragment; PEPTIDE (1)..(18) TCP-25 fragment) [HVF18]”, the anti-endotoxic functions result in assay [2] was “anti-endotoxic functions in vitro and in vivo”. Besides, the mortality result in assay [3] is “reduce mortality”.

The values are drawn from patent US20230127258A1, “COMPOSITION COMPRISING THROMBIN DERIVED PEPTIDES AND USE THEREOF” (In2Cure AB, priority 2019, published 2023).
